Test results from paper PMC9780888, “4-Isobutylmethcathinone—A Novel Synthetic Cathinone with High In Vitro Cytotoxicity and Strong Receptor Binding Preference of Enantiomers” (Pharmaceuticals, 2022).
Structures can show the parent of a compound that is named as a salt.

Tests used:
Assay type in all cases: cell-based
[1] = molecular target: T1, dopamine receptor DAR2 (Homo sapiens, UniProt P14416); test: PRESTO-Tango β-arrestin 2 recruitment assay, DAR2; conditions: for RLU value relative to control (transfected but untreated HTLA cells): DAR2, 500 nM
T1 construct: host or cells: HTLA (HEK 293-derived)
T1 sequence (P14416 whole entry): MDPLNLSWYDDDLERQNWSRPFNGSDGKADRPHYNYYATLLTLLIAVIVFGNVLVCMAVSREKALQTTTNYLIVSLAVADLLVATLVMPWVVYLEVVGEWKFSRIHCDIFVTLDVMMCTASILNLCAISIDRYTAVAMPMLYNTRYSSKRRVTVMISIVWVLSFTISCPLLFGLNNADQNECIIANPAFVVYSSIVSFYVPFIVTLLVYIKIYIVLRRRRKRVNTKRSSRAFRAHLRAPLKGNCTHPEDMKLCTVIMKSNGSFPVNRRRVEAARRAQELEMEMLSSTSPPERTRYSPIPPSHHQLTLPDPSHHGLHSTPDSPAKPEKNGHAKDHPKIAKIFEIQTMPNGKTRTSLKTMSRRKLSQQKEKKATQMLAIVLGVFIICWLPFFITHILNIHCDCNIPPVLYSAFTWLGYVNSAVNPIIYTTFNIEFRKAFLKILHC
Source text: (§1) However, binding to a specific receptor/transporter and, thus, the mechanism of action of a given cathinone always depends on the specific structure of the evaluated compound [37]. In this study, the binding activity of IBMcat and its enantiomers was verified by PRESTO-Tango (parallel receptor expression and screening via transcriptional output, with transcriptional activation following arrestin-2 translocation) assay using the HTLA cell line stably producing β-arrestin-2 in a fusion with TEV and luciferase production driven by tTA. For this purpose, the HTLA cells were transiently transfected with plasmid DNA encoding the dopamine receptors type 1-4 (DAR1-4), which also contain the TEV protease cleavage site followed by tTA at the 3’-end (DAR1-Tango, DAR2-Tango, DAR3-Tango, DAR4-Tango). In the case of the receptor activation by a ligand, in transfected cells, the receptor is desensitized by β-arrestin fused to TEV protease. This brings the TEV protease close to the site that specifically cleaves and, thus, the transcription factor can be cleaved. The transcription factor then translocates to the cell nucleus, in which it triggers the transcription of the target gene for luciferase production which can be determined by the light emitted from luciferin conversion to oxyluciferin. Here, the pronounced luminescence was recorded for all DAR1-4 types in HTLA cells treated with IBMCat and its enantiomers (Figure 8).
(§2) The HTLA cell line was used for the PRESTO-Tango β-arrestin recruitment assay. […]
(§3) The transfected HTLA cells were incubated for 24 h, and then 1 × 10^4 cells were seeded per well of a white 96-well clear bottom plate (Brand, Germany) in 40 μL of DMEM with 1% charcoal-stripped FBS (Thermo Fisher Scientific, USA). […] After 5 min., the luminescence was measured using a multi-mode microplate reader SpectraMax iD5 (Molecular Devices, San Jose, CA, USA) measuring the entire wavelength spectrum. All samples were measured in quadruplicates. The data were evaluated by Prism 7 software (GraphPad, San Jose, CA, USA).

[2] = molecular target: T2, dopamine receptor DAR3 (Homo sapiens, UniProt P35462); test: PRESTO-Tango β-arrestin 2 recruitment assay, DAR3; conditions: for increase in RLU compared to the control: DAR3, 500 nM
T2 construct: host or cells: HTLA (HEK 293-derived)
T2 sequence (P35462 whole entry): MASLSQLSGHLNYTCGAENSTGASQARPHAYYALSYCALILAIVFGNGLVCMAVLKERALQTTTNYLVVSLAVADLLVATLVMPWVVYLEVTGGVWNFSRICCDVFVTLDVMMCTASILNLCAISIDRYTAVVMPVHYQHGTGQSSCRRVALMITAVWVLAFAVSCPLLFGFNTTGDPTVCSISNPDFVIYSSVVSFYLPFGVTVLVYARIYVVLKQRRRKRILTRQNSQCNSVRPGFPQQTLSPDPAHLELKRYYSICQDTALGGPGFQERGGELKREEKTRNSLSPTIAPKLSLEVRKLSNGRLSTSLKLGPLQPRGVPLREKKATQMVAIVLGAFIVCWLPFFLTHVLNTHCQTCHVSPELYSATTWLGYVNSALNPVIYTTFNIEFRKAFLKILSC
Source text: as §1, §2, §3

[3] = molecular target: T3, dopamine receptor DAR4 (Homo sapiens, UniProt P21917); test: PRESTO-Tango β-arrestin 2 recruitment assay, DAR4; conditions: DAR4, 0-500 nM
T3 construct: host or cells: HTLA (HEK 293-derived)
T3 sequence (P21917 1-419): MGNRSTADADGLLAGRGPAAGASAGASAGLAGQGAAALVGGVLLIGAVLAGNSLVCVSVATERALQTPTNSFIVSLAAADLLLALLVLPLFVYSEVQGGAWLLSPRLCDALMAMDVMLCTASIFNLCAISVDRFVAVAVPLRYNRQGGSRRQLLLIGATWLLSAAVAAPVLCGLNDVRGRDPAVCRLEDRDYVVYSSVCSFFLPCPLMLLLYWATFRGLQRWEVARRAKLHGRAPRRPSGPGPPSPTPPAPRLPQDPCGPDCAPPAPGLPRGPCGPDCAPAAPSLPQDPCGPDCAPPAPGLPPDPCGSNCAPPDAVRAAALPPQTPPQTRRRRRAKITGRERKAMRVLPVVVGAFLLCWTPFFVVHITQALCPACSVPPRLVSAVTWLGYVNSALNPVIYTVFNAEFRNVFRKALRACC
Source text: as §1, §2, §3

| Compound | RLU value relative to control (transfected but untreated HTLA cells) [1] | increase in RLU compared to the control [2] | maximum increase in RLU compared to untreated control [3] | effect on DAR2-expressing cells ([1]; 0-500 nM) | effect on DAR3-expressing cells ([2]; 0-500 nM) |
| --- | --- | --- | --- | --- | --- |
| CNC(C)C(=O)c1ccc(CC(C)C)cc1.Cl (stereo not drawn) [IBMcat, 4-isobutylmethcathinone hydrochloride] | approximately 5 fold | 5 fold | 2 fold | – | – |
| CN[C@H](C)C(=O)c1ccc(CC(C)C)cc1 [R-IBMCat] | – | – | 1.5 fold | no effect | no effect |
| CN[C@@H](C)C(=O)c1ccc(CC(C)C)cc1 [S-IBMCat, (S)-4-isobutylmethcathinone hydrochloride] | ~3 fold | 6.5 fold | 2 fold | – | – |
